The source of these data is PMC5607274, “An iterative compound screening contest method for identifying target protein inhibitors using the tyrosine-protein kinase Yes” (Scientific Reports, 2017).

Structures are written as SMILES.

The target in one assay is T1, human recombinant Yes [a.a. 2–543 (end)] (Homo sapiens, UniProt P07947).
T1 construct: human recombinant Yes [a.a; 2–543 (end)]; purchased BPS Bioscience 40488
T1 sequence (P07947 2-543): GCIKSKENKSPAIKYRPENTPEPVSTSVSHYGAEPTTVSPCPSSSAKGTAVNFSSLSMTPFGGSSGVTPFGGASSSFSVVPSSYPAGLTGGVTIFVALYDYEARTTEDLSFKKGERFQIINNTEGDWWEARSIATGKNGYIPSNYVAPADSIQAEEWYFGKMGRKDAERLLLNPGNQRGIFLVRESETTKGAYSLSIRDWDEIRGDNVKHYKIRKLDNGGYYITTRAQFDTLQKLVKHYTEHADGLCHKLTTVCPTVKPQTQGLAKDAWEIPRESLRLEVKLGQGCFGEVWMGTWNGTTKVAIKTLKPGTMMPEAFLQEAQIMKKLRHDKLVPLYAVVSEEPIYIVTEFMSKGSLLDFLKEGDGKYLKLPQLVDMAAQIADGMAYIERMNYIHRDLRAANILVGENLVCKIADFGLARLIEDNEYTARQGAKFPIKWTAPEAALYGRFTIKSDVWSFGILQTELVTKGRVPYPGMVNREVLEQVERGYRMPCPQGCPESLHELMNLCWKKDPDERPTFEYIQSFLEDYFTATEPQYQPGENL
Nature of the assay: ADP-Glo kinase assay, inhibition rates of Yes phosphorylation activity (first and second screening). The conditions noted are these: first screening; mean of n = 4 wells; 10 μmol L−1 compound. It counts as biochemical. A digest of the protocol:
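ADP-Glo luminescence measured inhibition of human recombinant Yes (a.a. 2–543) phosphorylation activity. In the first screen, each compound ran in 4 wells and inhibition rates were averaged. The second screen retested hits as compounds dissolved from fresh powder.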
(ADP-Glo turns the ADP formed in a reaction into a luminescent signal.)
Regarding `Cc1ccc(-c2csc3ncn(CC(=O)N4CCN(CC(=O)NC(C)(C)C)CC4)c(=O)c23)cc1C` [Compound Z81619452], the “First screening IR (inhibition rate)” value was -8%. The same measure, in the same setting: for `NCC1CCCS1(=O)=O` (stereo not drawn) [Compound Z1203586543] the value was 6%. Take `O=C(Nc1cccc(OCCn2cccn2)c1)NC1CCSCC1` [Compound Z987964770]: the “First screening IR (inhibition rate)” value stood at 8%. On the same count and under the same terms, for `Cc1cc(Br)ccc1NC(=O)Cn1nc(C)c(S(=O)(=O)N2CCC(C)CC2)c1C` [Compound Z107308838] the value was -17%. Same read-out and setting: for `CC(NC(=O)c1ccc(-n2cnc3ccccc32)cc1)c1ccc(S(N)(=O)=O)cc1` (stereo not drawn) [Compound Z87656555] the value was -5%; for `CN(CC(=O)N1CCc2ccccc2C1)Cc1nc2ccccc2c(=O)[nH]1` [Compound Z46302902], -12%.

In the case of `COc1ccc(/C(O)=C2\C(=O)C(=O)N(CCN3CCNCC3)C2c2cccc(Oc3ccccc3)c2)cc1` (stereo not drawn) [Compound Z56865657], the “First screening IR (inhibition rate)” value is 6%. The same measure, in the same setting: for `COc1ccc(CCn2c(N)c(C(=O)NCc3ccc4c(c3)OCO4)c3nc4ccccc4nc32)cc1OC` [Compound Z56872869] the value was 34%; for `CC(C)(C)C1CCC(C(=O)N2CCC(C(=O)N3CCCCCC3)CC2)CC1` (stereo not drawn) [Compound Z191288442], 7%; for `CCOc1ccc(CCNC(=O)c2cc3ccccc3[nH]2)cc1OCC` [Compound Z28450151], -5%. The same measure, in the same setting: for `COc1ccc(C(N)=O)c(OCc2cc(C)cc(C)c2)c1` [Compound Z165885974] the value was 4%; for `CCN(CCC#N)S(=O)(=O)c1cccc(S(C)(=O)=O)c1` [Compound Z1116704440], -6%. The same measure, in the same setting: for `CC1=C(C(=O)N(C)C)C(c2ccc(-c3c(F)cccc3F)o2)NC(=S)N1` (stereo not drawn) [Compound Z1211655765] the value was 1%; for `CCn1c2ccccc2c2cc(NC(=O)COC(=O)c3c4c(nc5ccccc35)CCCC4)ccc21` [Compound Z19690549], 1%. In the case of `Cc1cn2c3c(=O)n(CC(C)C)c(=O)n(C)c3nc2n1-c1ccc(S(N)(=O)=O)cc1` [Compound Z271111810], the “First screening IR (inhibition rate)” value is given as 4%.

Take `CS(=O)(=O)c1ccc(N2CCCC2)c(S(C)(=O)=O)c1` [Compound Z168801896]: the “First screening IR (inhibition rate)” value stood at 13%.

With `Cc1ccc(-c2cc(-c3ccccc3)c3ccccc3n2)cc1.Cl` [Compound Z48951039], the “First screening IR (inhibition rate)” value is given as 11%. Turning to `CNS(=O)(=O)c1cccc(S(=O)(=O)N(C)C)c1` [Compound Z285953204], the “First screening IR (inhibition rate)” value is on record as 2%. For the compound `Cc1nc(NCC2CCN(c3ccc(F)cc3)C2)c2cnn(C)c2n1` (stereo not drawn) [Compound Z815820560], the “First screening IR (inhibition rate)” value is on record as -4%. The same measure, in the same setting: for `FC(F)(F)c1nc(N2CCOCC2)c2cnn(Cc3ccccc3)c2n1` [Compound Z108567148] the value was -2%; for `CC(Nc1ccc(C#N)cn1)c1ccc(OCc2cccnc2)cc1` (stereo not drawn) [Compound Z644822950], 2%. Regarding `COc1cc(C(=O)Nc2ccc3c(c2)NC(=O)C(C)O3)cc2c1OC(C)C2` (stereo not drawn) [Compound Z167364352], the “First screening IR (inhibition rate)” value is reported as 6%.

In the case of `COc1ccc(Nc2nc(COC(=O)CNS(=O)(=O)c3ccc(C)c(C)c3)cs2)cc1` [Compound Z16158532], the “First screening IR (inhibition rate)” value is listed as -1%. Still for that read-out and setting: for `Cc1cc(C(=O)COc2ncnc3ccccc23)c(C)n1CC(F)(F)F` [Compound Z18537891] the value was 6%. Consider `CC1=CC(=C(C#N)c2nc3ccccc3s2)C=C(C)N1c1ccc2c(c1)OCCO2` [Compound Z223450274], for which the “First screening IR (inhibition rate)” value is listed as -6%. Same read-out and setting: for `Nc1ncnc(Nc2cccc(C(F)(F)F)c2)n1` [Compound Z56931708] the value was 13%.

Staying with this assay, now noted: second screening, dissolved from fresh powder; n = 4; 10 μmol L−1 compound.
As to `COc1ccc(CCn2c(N)c(C(=O)NCc3ccc4c(c3)OCO4)c3nc4ccccc4nc32)cc1OC` [Compound Z56872869], the “Second screening IR (inhibition rate)” value is -24%.
